# According to patent US10610608B2, “Modular imaging agents containing amino acids and peptides” (Rochester Institute of Technology, priority 2013, dated 2020):
# System: live A549 human cancer cells
# Test: Confocal fluorescence microscopy (CFM) of live A549 cells stained with c(RGDyK) peptide conjugates (TMIAs)
# Assay type: cell-based
# Details: 5 μM conjugate, 2 hours incubation, 37° C., HeNe633 laser
# Method: The general protocol for Confocal Microscopy by Chen, et al was followed with the following detailed procedures for cell culture and staining.
# Cell Preparation: An A549 culture obtained from the American Type Culture Collection (ATCC) was grown to 50-70% confluency in an In Vitro Scientific 35 mm culture dish with 10 mm Glass bottom well. The culture was incubated in DMEM (Dulbecco's Modified Eagle Medium) with 10% Fetal Bovine Serum (FBS) overnight at 37° C. and 5% CO2. To obtain a suspension cell culture for transfer purpose, the cells were washed with Phosphate Buffered Saline (PBS) and then 0.25% Trypsin-EDTA (1×) (Invitrogen) was added to detach the cells.
# Cell Staining: The cells were washed 3× with pre-heated PBS (Phosphate-buffered saline). 5 μM c(RGDyK) peptide conjugates (TMIAs) were added to the 10 mm glass bottom well and incubated at 37° C. and 5% CO2. Cells were then washed 4× with chilled PBS. The samples were viewed immediately under the scanning laser confocal microscope (Leica Microsystems Inc.). Confocal Microscopy Scanning: Leica TCS SP5 II AOBS Filter Free Tunable Spectral Confocal Research Microscope with Resonant Scanner and Hybrid Detectors attached to Leica DMI6000 Fully Automated Microscope was used, with 40× water immersion objective. The 405 Diode and HeNe633 lasers were employed for visualizing suspected auto-fluorescence, c(RGDyK) Cy5.5-TMIA respectively. […]
substance,measurement,value
c(RGDyK)-SMCC-DLys(Cy5.5)-Lys(Gd-DOTA)-NH2 [Compound (44)],CFM image: fluorescence of the TMIA in the cell,illuminated areas a result of fluorescence of the TMIA
